Data from patent US6274616A, “N,N-diethylglycolamido ester prodrugs of indole sPLA2 inhibitors” (Eli Lilly and Company, priority 2000, dated 2001).

How the values were obtained:
[1] = target: recombinant human secreted phospholipase A2; details: cited from earlier work
[2] = target: recombinant human secreted phospholipase A2; details: guinea pig lung tissue; data from U.S. Pat. No. 5,654,326; read-out: Tissue test secreted PLA2 Apparent KB; cited from earlier work
[3] = Assay III: Rat Plasma Pharmacokinetics Study (oral bioavailability); type: in vivo, Rat (Fischer 344)
Method: The bioavailability of the compound of the invention, ((3-(2-amino-1,2-dioxoethyl)-1-((1,1'-biphenyl)-3-ylmethyl)-2-methyl-1H-indol-4-yl)oxy)acetic acid N,N-diethylglycolamido ester, was determined using a Rat Plasma Pharmacokinetics Study:
The purpose of this assay was to evaluate and compare the oral delivery for selected sPLA2 inhibitors.
The amount of sPLA2 inhibitor was corrected for free acid equivalents.
Suspension of sPLA2 inhibitor in 10% Acacia, prepared just prior to dose administration
Dose: 10 mg/kg (of the parent acid)
Blood samples (0.8 ml) were obtained at the following times: 0.5, 1, 2, 4, 8 and 24 hours (2 rats/timepoint)
Plasma was assayed by HPLC to measure concentrations of the different sPLA2 inhibitors (as free acids).
Cmax (maximal plasma concentrations), and AUC values were determined from the mean plasma concentration-time profiles.

Row | Compound | IC50 ([1]; chromogenic assay, 3-4 tests, data from U.S. Pat. No. 5,654,326, read-out: Inhibition of human secreted PLA2 IC50 ± mean deviation (3-4 tests)) [nM] | inhibiting sPLA2 (conclusion in words) ([1]; conclusion of Assay 1, Table I) | Kb [2] [nM] | oral bioavailability compared with other esters (in words) ([3]; conclusion from Table 3) | oral bioavailability compared with other esters (in words) ([3]; conclusion from Table 3, listed as compound of formula (I))
1 | Cc1c(C(=O)C(N)=O)c2c(OCC(=O)O)cccc2n1Cc1cccc(-c2ccccc2)c1 [Compound of formula (II), ((3-(2-amino-1,2-dioxoethyl)-1-((1,1'-biphenyl)-3-ylmethyl)-2-methyl-1H-indol-4-yl)oxy)acetic acid] | 4.33 ± 2.31 | highly active in inhibiting sPLA2 | 57 ± 11 |  | 
2 | CCN(CC)C(=O)COC(=O)COc1cccc2c1c(C(=O)C(N)=O)c(C)n2Cc1cccc(-c2ccccc2)c1 [N,N-diethylglycolamido, ((3-(2-amino-1,2-dioxoethyl)-1-((1,1'-biphenyl)-3-ylmethyl)-2-methyl-1H-indol-4-yl)oxy)acetic acid N,N-diethylglycolamido ester] |  |  |  | unexpectedly more bioavailable than many other esters of the sPLA2 inhibitor | highly bioavailable upon oral administration compared to other common ester type prodrugs
